Measured values reported in patent US7342011B2, “Rifamycin analogs and uses thereof” (priority 2003, dated 2008).
Values after ≈ are worked out from the molar mass of the structure shown.

Columns and labels:
Type in all cases: cell-based
E. coli = assay: MIC assay, E. coli
H. flu = assay: MIC assay, H. flu
E. faecalis = assay: MIC assay, E. faecalis
S. pneumo. = assay: MIC assay, S. pneumo.
S. aureus = assay: MIC assay, S. aureus

CCOC(=O)NC1CCN(c2cc(O)c3nc4c5c6c7c(C)c(O)c5c(=O)c(c-4oc3c2)NC(=O)/C(C)=C\C=C\[C@H](C)[C@H](O)[C@@H](C)[C@@H](O)[C@@H](C)[C@H](OC(C)=O)[C@H](C)[C@@H](OC)/C=C/O[C@@](C)(O7)C6=O)CC1 [Compound 1]
MIC (μg/mL) E. coli (E. coli): >8 µg/mL
MIC (μg/mL) H. flu (H. flu): 2 µg/mL (≈ 2.06 µM)
MIC (μg/mL) E. faecalis (E. faecalis): 2 µg/mL (≈ 2.06 µM)
MIC (μg/mL) S. pneumo. (S. pneumo.): 0.00025 µg/mL (≈ 0.000257 µM)
MIC (μg/mL) S. aureus (S. aureus): 0.008 µg/mL (≈ 0.00824 µM)

CCOC(=O)NC1CCN(c2cc(O)c3nc4c5c6c7c(C)c(O)c5c(=O)c(c-4oc3c2)NC(=O)C(C)=CC=CC(C)C(O)C(C)C(O)C(C)C(O)C(C)C(OC)C=COC(C)(O7)C6=O)CC1 (stereo not shown) [Compound 3, 25-O-deacetyl-3′-hydroxy-5′-(4-ethylcarbamyl-1-piperidinyl)benzoxazinorifamycin]
MIC (μg/mL) E. coli (E. coli): 4 µg/mL (≈ 4.31 µM)
MIC (μg/mL) H. flu (H. flu): 0.25 µg/mL (≈ 0.269 µM)
MIC (μg/mL) E. faecalis (E. faecalis): 0.12 µg/mL (≈ 0.129 µM)
MIC (μg/mL) S. pneumo. (S. pneumo.): 0.0005 µg/mL (≈ 0.000538 µM)
MIC (μg/mL) S. aureus (S. aureus): 0.03 µg/mL (≈ 0.0323 µM)

CCCNC(=O)NC1CCN(c2cc(O)c3nc4c5c6c7c(C)c(O)c5c(=O)c(c-4oc3c2)NC(=O)C(C)=CC=CC(C)C(O)C(C)C(O)C(C)C(O)C(C)C(OC)C=COC(C)(O7)C6=O)CC1 (stereo not shown) [Compound 26, 25-O-deacetyl-3′-hydroxy-5′-[4-propyluryl-1-piperidinyl]benzoxazinorifamycin]
MIC (μg/mL) E. coli (E. coli): >8 µg/mL
MIC (μg/mL) H. flu (H. flu): 1 µg/mL (≈ 1.06 µM)
MIC (μg/mL) E. faecalis (E. faecalis): 2 µg/mL (≈ 2.12 µM)
MIC (μg/mL) S. pneumo. (S. pneumo.): 0.00012 µg/mL (≈ 0.000127 µM)
MIC (μg/mL) S. aureus (S. aureus): 0.008 µg/mL (≈ 0.00849 µM)

COC1C=COC2(C)Oc3c(C)c(O)c4c(=O)c(c5oc6cc(N7CCC(NS(C)(=O)=O)CC7)cc(O)c6nc-5c4c3C2=O)NC(=O)C(C)=CC=CC(C)C(O)C(C)C(O)C(C)C(O)C1C (stereo not shown) [Compound 27]
MIC (μg/mL) E. coli (E. coli): >8 µg/mL
MIC (μg/mL) H. flu (H. flu): 0.12 µg/mL (≈ 0.128 µM)
MIC (μg/mL) E. faecalis (E. faecalis): 1 µg/mL (≈ 1.07 µM)
MIC (μg/mL) S. pneumo. (S. pneumo.): 0.001 µg/mL (≈ 0.00107 µM)
MIC (μg/mL) S. aureus (S. aureus): 0.015 µg/mL (≈ 0.016 µM)

COC1C=COC2(C)Oc3c(C)c(O)c4c(=O)c(c5oc6cc(N7CCC(NC(=O)OC(C)C)CC7)cc(O)c6nc-5c4c3C2=O)NC(=O)C(C)=CC=CC(C)C(O)C(C)C(O)C(C)C(O)C1C (stereo not shown) [Compound 29, 25-O-deacetyl-3′-hydroxy-5′-[4-isopropylcarbamyl-1-piperidinyl]benzoxazinorifamycin]
MIC (μg/mL) E. coli (E. coli): >8 µg/mL
MIC (μg/mL) H. flu (H. flu): 1 µg/mL (≈ 1.06 µM)
MIC (μg/mL) E. faecalis (E. faecalis): 2 µg/mL (≈ 2.12 µM)
MIC (μg/mL) S. pneumo. (S. pneumo.): 0.00012 µg/mL (≈ 0.000127 µM)
MIC (μg/mL) S. aureus (S. aureus): 0.008 µg/mL (≈ 0.00848 µM)

CCCS(=O)(=O)NC1CCN(c2cc(O)c3nc4c5c6c7c(C)c(O)c5c(=O)c(c-4oc3c2)NC(=O)/C(C)=C\C=C\[C@H](C)[C@H](O)[C@@H](C)[C@@H](O)[C@@H](C)[C@H](OC(C)=O)[C@H](C)[C@@H](OC)/C=C/O[C@@](C)(O7)C6=O)CC1 [Compound 35]
MIC (μg/mL) E. coli (E. coli): 8 µg/mL (≈ 7.96 µM)
MIC (μg/mL) H. flu (H. flu): 0.5 µg/mL (≈ 0.497 µM)
MIC (μg/mL) E. faecalis (E. faecalis): 4 µg/mL (≈ 3.98 µM)
MIC (μg/mL) S. pneumo. (S. pneumo.): 0.00025 µg/mL (≈ 0.000249 µM)
MIC (μg/mL) S. aureus (S. aureus): 0.015 µg/mL (≈ 0.0149 µM)

CCNC(=O)NC1CCN(c2cc(O)c3nc4c5c6c7c(C)c(O)c5c(=O)c(c-4oc3c2)NC(=O)C(C)=CC=CC(C)C(O)C(C)C(O)C(C)C(O)C(C)C(OC)C=COC(C)(O7)C6=O)CC1 (stereo not shown) [Compound 37, 25-O-deacetyl-3′-hydroxy-5′-[4-ethyluryl-1-piperidinyl]benzoxazinorifamycin]
MIC (μg/mL) E. coli (E. coli): >8 µg/mL

COC1C=COC2(C)Oc3c(C)c(O)c4c(=O)c(c5oc6cc(N7CCC(NS(=O)(=O)C(F)(F)F)CC7)cc(O)c6nc-5c4c3C2=O)NC(=O)C(C)=CC=CC(C)C(O)C(C)C(O)C(C)C(O)C1C (stereo not shown) [Compound 38]
MIC (μg/mL) E. coli (E. coli): >8 µg/mL

CO[C@H]1/C=C/O[C@@]2(C)Oc3c(C)c(O)c4c(=O)c(c5oc6cc(N7CCC(N)CC7)cc(O)c6nc-5c4c3C2=O)NC(=O)/C(C)=C\C=C\[C@H](C)[C@H](O)[C@@H](C)[C@@H](O)[C@@H](C)[C@H](O)[C@@H]1C [Compound 39, 25-O-deacetyl-3′-hydroxy-5′-[4-amino-1-piperidinyl]benzoxazinorifamycin]
MIC (μg/mL) E. coli (E. coli): >8 µg/mL
MIC (μg/mL) H. flu (H. flu): 0.25 µg/mL (≈ 0.292 µM)
MIC (μg/mL) E. faecalis (E. faecalis): 2 µg/mL (≈ 2.33 µM)
MIC (μg/mL) S. pneumo. (S. pneumo.): 0.001 µg/mL (≈ 0.00117 µM)
MIC (μg/mL) S. aureus (S. aureus): 0.03 µg/mL (≈ 0.035 µM)

CCOC(=O)N1CCC[C@@H]2CN(c3cc(O)c4nc5c6c7c8c(C)c(O)c6c(=O)c(c-5oc4c3)NC(=O)/C(C)=C\C=C\[C@H](C)[C@H](O)[C@@H](C)[C@@H](O)[C@@H](C)[C@H](OC(C)=O)[C@H](C)[C@@H](OC)/C=C/O[C@@](C)(O8)C7=O)C[C@@H]21 [Compound 40, 3′-hydroxy-5′-[1-ethylcarbamyl-(4aR,7aR)-octahydro-6H-pyrrolo[3,4-b]pyridin-6-yl]benzoxazinorifamycin]
MIC (μg/mL) E. coli (E. coli): >8 µg/mL
MIC (μg/mL) H. flu (H. flu): 0.5 µg/mL (≈ 0.501 µM)
MIC (μg/mL) E. faecalis (E. faecalis): 1 µg/mL (≈ 1 µM)
MIC (μg/mL) S. pneumo. (S. pneumo.): 0.008 µg/mL (≈ 0.00802 µM)
MIC (μg/mL) S. aureus (S. aureus): 0.06 µg/mL (≈ 0.0602 µM)

COCCOC(=O)NC1CCN(c2cc(O)c3nc4c5c6c7c(C)c(O)c5c(=O)c(c-4oc3c2)NC(=O)/C(C)=C\C=C\[C@H](C)[C@H](O)[C@@H](C)[C@@H](O)[C@@H](C)[C@H](OC(C)=O)[C@H](C)[C@@H](OC)/C=C/O[C@@](C)(O7)C6=O)CC1 [Compound 41, 3′-hydroxy-5′-[4-methoxyethylcarbamyl-1-piperidinyl]benzoxazinorifamycin]
MIC (μg/mL) E. coli (E. coli): >8 µg/mL
MIC (μg/mL) H. flu (H. flu): 2 µg/mL (≈ 2 µM)
MIC (μg/mL) E. faecalis (E. faecalis): >8 µg/mL
MIC (μg/mL) S. pneumo. (S. pneumo.): 0.0005 µg/mL (≈ 0.000499 µM)
MIC (μg/mL) S. aureus (S. aureus): 0.25 µg/mL (≈ 0.25 µM)

CCOC(=O)N1CCCC2CN(c3cc(O)c4nc5c6c7c8c(C)c(O)c6c(=O)c(c-5oc4c3)NC(=O)C(C)=CC=CC(C)C(O)C(C)C(O)C(C)C(O)C(C)C(OC)C=COC(C)(O8)C7=O)CC21 (stereo not shown) [Compound 42]
MIC (μg/mL) E. coli (E. coli): 8 µg/mL (≈ 8.38 µM)
MIC (μg/mL) H. flu (H. flu): 0.5 µg/mL (≈ 0.524 µM)
MIC (μg/mL) E. faecalis (E. faecalis): 2 µg/mL (≈ 2.09 µM)
MIC (μg/mL) S. pneumo. (S. pneumo.): 0.00012 µg/mL (≈ 0.000126 µM)
MIC (μg/mL) S. aureus (S. aureus): 0.008 µg/mL (≈ 0.00838 µM)

COC1C=COC2(C)Oc3c(C)c(O)c4c(=O)c(c5oc6cc(N7CCC(NC(C)=O)CC7)cc(O)c6nc-5c4c3C2=O)NC(=O)C(C)=CC=CC(C)C(O)C(C)C(O)C(C)C(O)C1C (stereo not shown) [Compound 43, 25-O-deacetyl-3′-hydroxy-5′-[4-acetamide-1-piperidinyl]benzoxazinorifamycin]
MIC (μg/mL) E. coli (E. coli): >8 µg/mL

CO[C@H]1/C=C/O[C@@]2(C)Oc3c(C)c(O)c4c(=O)c(c5oc6cc(N7CCC(NC(C)=O)CC7)cc(O)c6nc-5c4c3C2=O)NC(=O)/C(C)=C\C=C\[C@H](C)[C@H](O)[C@@H](C)[C@@H](O)[C@@H](C)[C@H](OC(C)=O)[C@@H]1C [Compound 44]
MIC (μg/mL) E. coli (E. coli): >8 µg/mL
MIC (μg/mL) H. flu (H. flu): 0.25 µg/mL (≈ 0.266 µM)
MIC (μg/mL) E. faecalis (E. faecalis): 2 µg/mL (≈ 2.13 µM)
MIC (μg/mL) S. pneumo. (S. pneumo.): 0.008 µg/mL (≈ 0.0085 µM)
MIC (μg/mL) S. aureus (S. aureus): 0.06 µg/mL (≈ 0.0638 µM)

COC1C=COC2(C)Oc3c(C)c(O)c4c(=O)c(c5oc6cc(N7CCC(NC(=O)OC(C)(C)C)CC7)cc(O)c6nc-5c4c3C2=O)NC(=O)C(C)=CC=CC(C)C(O)C(C)C(O)C(C)C(O)C1C (stereo not shown) [Compound 52, 25-O-deacetyl-3′-hydroxy-5′-[4-(2,2-dimethylethyl)carbamyl-1-piperidinyl]benzoxazinorifamycin]
MIC (μg/mL) E. coli (E. coli): >8 µg/mL

COC1C=COC2(C)Oc3c(C)c(O)c4c(=O)c(c5oc6cc(N7CC8C(C7)C8N(C)C)cc(O)c6nc-5c4c3C2=O)NC(=O)C(C)=CC=CC(C)C(O)C(C)C(O)C(C)C(OC(C)=O)C1C [Compound 53, 3′-hydroxy-5′-[6-N,N-dimethylamino-(1R,5S)-3-azabicyclo[3.1.0]hex-3-yl]benzoxazinorifamycin]
MIC (μg/mL) E. coli (E. coli): >8 µg/mL

COC1C=COC2(C)Oc3c(C)c(O)c4c(=O)c(c5oc6cc(N7CC8C(C7)C8N(C)C)cc(O)c6nc-5c4c3C2=O)NC(=O)C(C)=CC=CC(C)C(O)C(C)C(O)C(C)C(O)C1C [Compound 54, 3′-hydroxy-5′-[6-N,N-dimethylamino-(1R,5S)-3-azabicyclo[3.1.0]hex-3-yl]benzoxazinorifamycin]
MIC (μg/mL) E. coli (E. coli): >8 µg/mL

COC1C=COC2(C)Oc3c(C)c(O)c4c(=O)c(c5oc6cc(N7CCC(CNC(C)=O)CC7)cc(O)c6nc-5c4c3C2=O)NC(=O)C(C)=CC=CC(C)C(O)C(C)C(O)C(C)C(O)C1C (stereo not shown) [Compound 56, 25-O-deacetyl-3′-hydroxy-5′-[4-acetylaminomethyl-1-piperidinyl]benzoxazinorifamycin]
MIC (μg/mL) E. coli (E. coli): 8 µg/mL (≈ 8.76 µM)

CCOC(=O)NCC1CCN(c2cc(O)c3nc4c5c6c7c(C)c(O)c5c(=O)c(c-4oc3c2)NC(=O)C(C)=CC=CC(C)C(O)C(C)C(O)C(C)C(O)C(C)C(OC)C=COC(C)(O7)C6=O)CC1 (stereo not shown) [Compound 60, 25-O-deacetyl-3′-hydroxy-5′-[4-ethylcarbamylmethyl-1-piperidinyl]benzoxazinorifamycin]
MIC (μg/mL) E. coli (E. coli): >8 µg/mL

COC1C=COC2(C)Oc3c(C)c(O)c4c(=O)c(c5oc6cc(N7CCC(c8ccccc8)CC7)cc(O)c6nc-5c4c3C2=O)NC(=O)C(C)=CC=CC(C)C(O)C(C)C(O)C(C)C(O)C1C (stereo not shown) [Compound 62, 25-O-deacetyl-3′-hydroxy-5′-[4-phenyl-1-piperidinyl]benzoxazinorifamycin]
MIC (μg/mL) E. coli (E. coli): >8 µg/mL

COCCOC(=O)NC1CCN(c2cc(O)c3nc4c5c6c7c(C)c(O)c5c(=O)c(c-4oc3c2)NC(=O)C(C)=CC=CC(C)C(O)C(C)C(O)C(C)C(O)C(C)C(OC)C=COC(C)(O7)C6=O)CC1 (stereo not shown) [Compound 63, 25-O-deacetyl-3′-hydroxy-5′-[4-methoxyethylcarbamyl-1-piperidinyl]benzoxazinorifamycin]
MIC (μg/mL) E. coli (E. coli): 8 µg/mL (≈ 8.34 µM)

CCCS(=O)(=O)NC1CCN(c2cc(O)c3nc4c5c6c7c(C)c(O)c5c(=O)c(c-4oc3c2)NC(=O)C(C)=CC=CC(C)C(O)C(C)C(O)C(C)C(O)C(C)C(OC)C=COC(C)(O7)C6=O)CC1 (stereo not shown) [Compound 67]
MIC (μg/mL) E. coli (E. coli): >8 µg/mL

COC1C=COC2(C)Oc3c(C)c(O)c4c(=O)c(c5oc6cc(N7CCC(C)(NC(C)=O)CC7)cc(O)c6nc-5c4c3C2=O)NC(=O)C(C)=CC=CC(C)C(O)C(C)C(O)C(C)C(O)C1C (stereo not shown) [Compound 74, 25-O-deacetyl-3′-hydroxy-5′-[4-methyl-4-acetylamino-1-piperidinyl]benzoxazinorifamycin]
MIC (μg/mL) E. coli (E. coli): >8 µg/mL
